Consider 31 molecules from patent EP0536419B1, “TRICYCLIC TRIAZOLE DERIVATIVES, PRODUCTION AND USE THEREOF” (TORAY INDUSTRIES, INC., priority 1991, dated 1992).

One experiment addresses T1, PAF receptor (Oryctolagus cuniculus, UniProt G1TEI7).
T1 construct: Cell membrane fraction of rabbit platelets was prepared; from tissue; host or cells: rabbit platelets (cell membrane fraction)
In words: Binding test using [3H]-PAF (PAF receptor binding test). The arrangement: species or system rabbit. Conditions: rabbit platelet membrane fraction, [3H]-PAF 0.4 nM, 25°C, 60 minutes; read-out: Receptor Binding Inhibition IC50 (converted).

In a further experiment the target is rabbit platelets (Oryctolagus cuniculus, UniProt G1TEI7). Briefly: in vitro platelet agglutination inhibition test (PAF-induced). It counts as cell-based. Particulars: rabbit platelet-rich plasma, PAF final concentration 10 ng/ml, 37°C.
[1] abbreviates: read-out: PAF-Induced Platelet Aggregation IC50 (converted).

Where a name gives a salt, the structure may show the parent alone. Read-outs that look alike come from different tables or passages of the source.

T1 sequence (G1TEI7 1-342): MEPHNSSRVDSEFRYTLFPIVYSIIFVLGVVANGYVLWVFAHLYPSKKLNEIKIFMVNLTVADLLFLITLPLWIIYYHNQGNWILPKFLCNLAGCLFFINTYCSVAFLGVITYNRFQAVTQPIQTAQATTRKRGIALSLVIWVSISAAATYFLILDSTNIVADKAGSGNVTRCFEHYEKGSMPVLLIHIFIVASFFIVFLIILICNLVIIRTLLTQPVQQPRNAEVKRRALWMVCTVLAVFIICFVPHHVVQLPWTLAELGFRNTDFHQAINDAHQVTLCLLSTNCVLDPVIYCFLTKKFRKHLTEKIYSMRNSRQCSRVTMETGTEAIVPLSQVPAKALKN
rabbit platelets, sequence (G1TEI7 1-342): as above
Protocol for PAF receptor: Binding Test Using [^3H]-PAF (PAF receptor binding test)
Cell membrane fraction of rabbit platelets was prepared in accordance with the method by Hwang et al (Biochemistry; 22; 4756, (1983)). In 10 mM Tris buffer containing 0.25% bovine serum albumin, 50 mg of this membrane fraction was suspended and tritium-labelled PAF [^3H]-PAF; 0.4 nM) and a test compound were added thereto. After incubating the resulting mixture at 25°C for 60 minutes, the mixture was subjected to filtration through a filter paper made of glass fibers. The filter paper was washed with cold Tris buffer three times and then transferred to a vial. A scintillator was added thereto and the dose of radioactivity was measured with a liquid scintillation counter. The inhibition rate (binding ability) of the test compound was calculated according to the following equation and IC50 values were determined by interpolation. Inhibition Rate (%) = {1 - [((A - B))/((C - B))]} x 100 [formula] (wherein A represents amount bound in the presence of the compound, B represents amount bound by non-specific binding which is the dose of [^3H]-PAF bound radioactivity in the presence of 1 µM of PAF, and C represents total amount bound which is the dose of [^3H]-PAF bound radioactivity.
As a control agent, WEB2086 (Japanese Laid-open Patent Application (Kokai) No. 65-176591) disclosed as a PAF-antagonist was used.
Protocol for rabbit platelets: To determine the PAF-antagonizing property of the compounds, the PAF-induced agglutination of rabbit platelets in vitro is utilized. To obtain platelet-rich plasma (PRP), venous blood is taken from rabbit auricular vein into a plastic centrifugal tube containing 1.0% sodium citrate solution. The ratio of sodium citrate solution to blood is 1:10. The obtained citrate-containing blood is centrifuged at 70 x g (625 rpm) at room temperature for 20 minutes and the PRP in the upper layer is transferred to another plastic tube. The remaining lower layer is further centrifuged at 1500 x g (2800 rpm) for 10 minutes and the platelet poor plasma (PPP) in the upper layer is recovered. The platelet agglutination is measured by using aggregometer commercially available from Niko Bioscience, Inc. An aliquote of the PRP is poured into a cubette for measurement. Immediately thereafter, aspirin, creatinin phosphate and creatinin phosphokinase are added to final concentrations of 0.1 mM, 7 mM and 45 U/ml, respectively. Then a solution of a test compound is added and the resulting mixture is stirred at 37°C for 2 minutes. To the resultant, PAF (final concentration: 10 ng/ml) is added to induce platelet aggregation. The platelet aggregation rate is calculated from the relative maximum value in each aggregation curve taking the transmittance of PPP as the maximum aggregation (100% aggregation). Using the aggregation rate when physiological saline was added as a control, the inhibition rate which was the ratio of the aggregation rate when the test compound was added to the control was calculated and the IC50 values were determined by interpolation.

Turning to `Cc1nnc2n1-c1ccccc1N(CCN1CCN(C(c3ccccc3)c3ccccc3)CC1)C2` [Compound 43, 4,5-dihydro-1-methyl-5-[3-[4-(diphenylmethyl)piperazin-1-yl]ethyl][1,2,4]triazolo[4,3-a]quinoxaline fumaric acid salt], the IC50 at PAF receptor was 6.46 µM.

Consider `Cc1nnc2n1-c1ccccc1N(CCCN1CCN(C(c3ccccc3)c3ccccc3)CC1)C2` [Compound 44, 4,5-dihydro-1-methyl-5-[3-[4-(diphenylmethyl)piperazin-1-yl]propyl][1,2,4]triazolo[4,3-a]quinoxaline], for which the IC50 on PAF receptor was 1.67 µM.

As to `CCCc1nnc2n1-c1ccccc1N(CCCN1CCC(c3c[nH]c4ccccc34)CC1)C2` [Compound 53, 4,5-dihydro-1-propyl-5-[3-[4-(3-indolyl)piperidin-1-yl]propyl] [1,2,4]triazolo[4,3-a]quinoxaline], the figures for the IC50 on PAF receptor and on rabbit platelets (setting [1]) were 3.3 µM and 3.96 µM, respectively.

For `COc1ccc2[nH]cc(C3CCN(CCCN4Cc5nnc(C)n5-c5ccccc54)CC3)c2c1` [Compound 54, 4,5-dihydro-1-methyl-5-[3-[4-(5-methoxy-3-indolyl)piperidin-1-yl]propyl] [1,2,4]triazolo[4,3-a]quinoxaline], the 50% inhibitory concentration (IC50) at PAF receptor is 1.16 µM.

Take `Cc1nnc2n1-c1ccccc1N(CCCN1CCC(c3c[nH]c4ccc(Cl)cc34)CC1)C2` [Compound 55, 4,5-dihydro-1-methyl-5-[3-[4-(5-chloro-3-indolyl)piperidin-1-yl]propyl] [1,2,4]triazolo[4,3-a]quinoxaline]: the IC50 at PAF receptor is 0.803 µM.

Turning to `Cc1nnc2n1-c1ccccc1N(CCCN1CCC(c3c[nH]c4ccc(Br)cc34)CC1)C2` [Compound 56, 4,5-dihydro-1-methyl-5-[3-[4-(5-bromo-3-indolyl)piperidin-1-yl]propyl] [1,2,4]triazolo[4,3-a]quinoxaline], the IC50 at PAF receptor is 0.95 µM.

On to `Cc1nnc2n1-c1ccccc1N(CCCN1CCC(c3c[nH]c4ccc(F)cc34)CC1)C2` [Compound 57, 4,5-dihydro-1-methyl-5-[3-[4-(5-fluoro-3-indolyl)piperidin-1-yl]propyl] [1,2,4]triazolo[4,3-a]quinoxaline], for which the IC50 on PAF receptor was 2.7 µM.

Regarding `Cc1ccc2[nH]cc(C3CCN(CCCN4Cc5nnc(C)n5-c5ccccc54)CC3)c2c1` [Compound 58, 4,5-dihydro-1-methyl-5-[3-[4-(5-methyl-3-indolyl)piperidin-1-yl]propyl] [1,2,4]triazolo[4,3-a]quinoxaline], the IC50 on PAF receptor was 0.636 µM.

As to `Cc1nnc2n1-c1ccccc1N(CCCN1CC=C(c3c[nH]c4ccccc34)CC1)C2` [Compound 63, 4,5-dihydro-1-methyl-5-[3-[1,2,3,6-tetrahydro-4-(3-indolyl)pyridin-1-yl]propyl] [1,2,4]triazolo[4,3-a]quinoxaline], at rabbit platelets (read-out: PAF-Induced Platelet Aggregation IC50), the IC50 was 10.4 µM.

On to `CCn1cc(C2CCN(CCCN3Cc4nnc(C)n4-c4ccccc43)CC2)c2ccccc21` [Compound 64, 4,5-dihydro-1-methyl-5-[3-[4-(1-ethyl-3-indolyl)piperidin-1-yl]propyl][1,2,4]triazolo[4,3-a] quinoxaline fumaric acid salt], for which the values for the IC50 on PAF receptor and at rabbit platelets (setting [1]) were 0.806 µM and 2.8 µM, respectively.

`Cc1nnc2n1-c1ccc(Cl)cc1N(CCCN1CCC(c3c[nH]c4ccccc34)CC1)C2` [Compound 65, 7-chloro-4,5-dihydro-1-methyl-5-[3-[4-(3-indolyl)piperidin-1-yl]propyl][1,2,4]triazolo[4,3-a]quinoxaline]: the IC50 is 10.4 µM at PAF receptor and 4.34 µM at rabbit platelets (setting [1]).

For the molecule `Cc1nnc2n1-c1ccc(F)cc1N(CCCN1CCC(c3c[nH]c4ccccc34)CC1)C2` [Compound 66, 7-fluoro-4,5-dihydro-1-methyl-5-[3-[4-(3-indolyl)piperidin-1-yl]propyl][1,2,4]triazolo[4,3-a]quinoxaline], the half-inhibitory concentration (IC50) at rabbit platelets (setting [1]) was 4.27 µM.

As to `Cc1nnc2n1-c1ccccc1N(CCCN1CCN(C(c3ccccc3)c3ccc(Cl)cc3)CC1)C2` (stereo not drawn) [Compound 69, 4,5-dihydro-1-methyl-5-[3-[4-[(4-chlorophenyl)phenylmethyl]piperazin-1-yl]propyl][1,2,4]triazolo[4,3-a]quinoxaline], the IC50 at PAF receptor was 0.702 µM.

`Cc1nnc2n1-c1ccccc1N(CCCN1CCC(C(O)(c3ccccc3)c3ccccc3)CC1)C2` [Compound 74, 4,5-dihydro-1-methyl-5-[3-[4-(hydroxydiphenylmethyl)piperidin-1-yl]propyl][1,2,4]triazolo[4,3-a] quinoxaline tartaric acid salt]: the IC50 at PAF receptor was 0.357 µM.

As to `Cc1nnc2n1-c1ccccc1N(CCCN1CCC(OC(c3ccccc3)c3ccccc3)CC1)C2` [Compound 76, 4,5-dihydro-1-methyl-5-[3-[4-(diphenylmethoxy)piperidin-1-yl]propyl][1,2,4]triazolo[4,3-a] quinoxaline tartaric acid salt], the IC50 at PAF receptor was 0.202 µM.

As to `Cc1nnc2n1-c1ccccc1N(CCCN1CCC(=C(c3ccc(F)cc3)c3ccc(F)cc3)CC1)C2` [Compound 77, 4,5-dihydro-1-methyl-5-[3-[4-[bis(4-fluorophenyl)methylene]piperidin-1-yl]propyl][1,2,4]triazolo[4,3-a] quinoxaline], the IC50 is 0.19 µM on PAF receptor and 0.141 µM at rabbit platelets (setting [1]).

With `Cc1nnc2n1-c1ccccc1N(CCCN1CCC(=C3c4ccccc4C=Cc4ccccc43)CC1)C2` [Compound 78, 4,5-dihydro-1-methyl-5-[3-[4-(5H-dibenzo[a,d]cyclohepten-5-ylidene)piperidin-1-yl]propyl][1,2,4]triazolo[4,3-a] quinoxaline], the results for the IC50 at PAF receptor and at rabbit platelets (setting [1]) were 0.118 µM and 4.8 µM, respectively.

Turning to `Cc1nnc2n1-c1ccccc1N(CCCN1CCC(c3noc4ccccc34)CC1)C2` [Compound 80, 4,5-dihydro-1-methyl-5-[3-[4-(1,2-benzisoxazol-3-yl)piperidin-1-yl]propyl][1,2,4]triazolo[4,3-a] quinoxaline], the IC50 at PAF receptor was 0.77 µM; on rabbit platelets (setting [1]), 0.103 µM.

As for `Cc1nnc2n1-c1ccccc1N(CCCN1CCC(n3c(=O)[nH]c4ccccc43)CC1)C2` [Compound 81, 4,5-dihydro-1-methyl-5-[3-[4-(2-keto-1-benzimidazolynyl)piperidin-1-yl]propyl][1,2,4]triazolo[4,3-a] quinoxaline], the IC50 was 3.38 µM at PAF receptor and 1.53 µM at rabbit platelets (setting [1]).

For the molecule `Cc1nnc2n1-c1ccccc1N(CCCN1CCC(=C(c3ccccc3)c3ccccc3)C1)C2` [Compound 85, 4,5-dihydro-1-methyl-5-[3-[3-(diphenylmethylene)pyrrolidin-1-yl]propyl][1,2,4]triazolo[4,3-a] quinoxaline], the IC50 at PAF receptor was 0.238 µM; at rabbit platelets (setting [1]) it was 3.03 µM.

`COc1ccccc1N1CCN(CCCN2Cc3nnc(C)n3-c3ccccc32)CC1` [Compound 86, 4,5-dihydro-1-methyl-5-[3-[4-(2-methoxyphenyl)piperazin-1-yl]propyl][1,2,4]triazolo[4,3-a] quinoxaline]: the IC50 at PAF receptor is 7.17 µM; at rabbit platelets (setting [1]), 5.26 µM.

Consider `Cc1nnc2n1-c1ccccc1N(CCCN1CCC(=C3c4ccccc4CCc4ccccc43)CC1)C2` [Compound 87, 4,5-dihydro-1-methyl-5-[3-[4-(10,11-dihydro-5H-dibenzo[a,d]cyclohepten-5-ylidene)piperidin-1-yl]propyl][1,2,4]triazolo[4,3-a] quinoxaline], for which the IC50 is 0.199 µM at PAF receptor and 6.18 µM on rabbit platelets (setting [1]).

With `Cc1nnc2n1-c1ccccc1N(CCCN1CCC(=C3c4ccccc4COc4ccccc43)CC1)C2` [Compound 88, 4,5-dihydro-1-methyl-5-[3-[4-(6,11-dihydrodibenzo[b.e]oxepin-11-ylidene)piperidin-1-yl]propyl][1,2,4]triazolo[4,3-a] quinoxaline], the figures for the IC50 on PAF receptor and at rabbit platelets (setting [1]) were 0.675 µM and 1.71 µM, respectively.

As to `Cc1nnc2n1-c1ccccc1N(CCCN1CCC(C(O)(c3ccc(F)cc3)c3ccc(F)cc3)CC1)C2C` (stereo not drawn) [Compound 90, 4,5-dihydro-1,4-dimethyl-5-[3-[4-[hydroxybis(4-fluorophenyl)methyl]piperidin-1-yl]propyl][1,2,4]triazolo[4,3-a] quinoxaline], the concentration for half-maximal inhibition (IC50) was 1.82 µM at PAF receptor and 1.03 µM on rabbit platelets (setting [1]).

As for `CCc1nnc2n1-c1ccccc1N(CCCN1CCC(=C(c3ccccc3)c3ccccc3)CC1)C2` [Compound 92, 1-ethyl-4,5-dihydro-5-[3-[4-(diphenylmethylene)piperidin-1-yl]propyl][1,2,4]triazolo[4,3-a] quinoxaline], the IC50 on rabbit platelets (setting [1]) is 1.35 µM.

Take `Cc1nnc2n1-c1ccccc1N(CCCN1CCC(C(O)(c3cccs3)c3cccs3)CC1)C2` [Compound 127]: the IC50 at PAF receptor was 0.152 µM; on rabbit platelets (setting [1]), 0.455 µM.

As for `Cc1nnc2n1-c1ccccc1N(CCCN1CCC(C(=O)c3ccccc3)CC1)C2` [Compound 128, 4,5-dihydro-1-methyl-5-[3-(4-benzoylpiperidin-1-yl)propyl] [1,2,4]triazolo[4,3-a]quinoxaline], the IC50 at PAF receptor was 1.52 µM; on rabbit platelets (setting [1]), 4.09 µM.

Consider `Cc1nnc2n1-c1ccccc1N(CCCN1CCC(C(O)(c3ccccc3)c3cccs3)CC1)C2` (stereo not drawn) [Compound 129], for which the IC50 on PAF receptor and at rabbit platelets (setting [1]) was 0.34 µM throughout.

Regarding `COc1ccc(C(O)(c2ccccc2)C2CCN(CCCN3Cc4nnc(C)n4-c4ccccc43)CC2)cc1OC` (stereo not drawn) [Compound 130, 4,5-dihydro-1-methyl-5-[3-[4-[hydroxy(3,4-dimethoxyphenyl)phenylmethyl]piperidin-1-yl]propyl] [1,2,4]triazolo[4,3-a]quinoxaline], the IC50 at PAF receptor was 0.126 µM; on rabbit platelets (setting [1]), 0.578 µM.

Regarding `Cc1nnc2n1-c1ccccc1N(CCCN1CCC(C(O)(c3ccccc3)c3ccc(N(C)C)cc3)CC1)C2` (stereo not drawn) [Compound 131], the IC50 at PAF receptor was 0.0838 µM; at rabbit platelets (setting [1]), 0.242 µM.

`Cc1nnc2n(CCN3CCN(C(c4ccccc4)c4ccccc4)CC3)c3ccccc3n12` [Compound 191, 3-methyl-9-[3-[4-(diphenylmethyl)piperazin-1-yl]ethyl]-9H-[1,2,4]triazolo[4,3-a]benzimidazole fumaric acid salt]: the IC50 at PAF receptor was 7.1 µM.

In general, IC50 refers to the concentration needed to halve the response being measured.
